Data set [1] has as its system RKO human colon adenocarcinoma cells (RKOp27 subclone), proliferating. The data set can be described thus: Alamar Blue cell viability assay, RKO p27 uninduced (proliferating). Particulars: RKOp27, 72 h, read-out: −log EC50 [mol/l] RKO p27 uninduced (proliferating), anti-proliferative/cytotoxic activity (converted). On the technique in general: Alamar Blue is a resazurin reagent that responds to reducing activity.
Experimental: (§1) The anti-proliferative/cytotoxic activity of the compounds described herein can be tested on subclones of RKO human colon adenocarcinoma cells (Schmidt et al., Oncogene 19, 2423-2429; 2000) using the Alamar Blue cell viability assay (described in O'Brien et al. Eur J Biochem 267, 5421-5426, 2000). The compounds are dissolved as 10 mM solutions in DMSO and subsequently diluted in semi-logarithmic steps. DMSO dilutions are further diluted 1:100 into Dulbecco's modified Eagle's medium (DMEM) containing 10% fetal calf serum to a final concentration twice as much as the final concentration in the test. RKO subclones are seeded into 96 well flat bottom plates at a density of 4000 cells per well in a volume of 50 μl per well. 24 hours after seeding the 50 μl each of the compound dilutions in DMEM medium are added into each well of the 96 well plate. Each compound dilution is tested as triplicates. Wells containing untreated control cells are filled with 50 μl DMEM medium containing 1% DMSO. The cells are then incubated with the substances for 72 hours at 37° C. in a humidified atmosphere containing 5% carbon dioxide. To determine the viability of the cells, 10 μl of an Alamar Blue solution (Biosource) are added and the fluorescence is measured at an extinction of 544 nm and an emission of 590 nm. For the calculation of the cell viability the emission value from untreated cells is set as 100% viability and the emission rates of treated cells are set in relation to the values of untreated cells. Viabilities are expressed as % values. The Graphpad Prism program (GraphPad Software, Inc) is used for the calculation of EC50 values for anti-proliferative/cytotoxic activity out of the obtained dose-response curves.
(§2) Each compound dilution is tested as triplicates. Wells containing untreated control cells are filled with 50 μl DMEM medium containing 1% DMSO. The cells are then incubated with the substances for 72 hours at 37° C. in a humidified atmosphere containing 5% carbon dioxide. To determine the viability of the cells, 10 μl of an Alamar Blue solution (Biosource) are added and the fluorescence is measured at an extinction of 544 nm and an emission of 590 nm. For the calculation of the cell viability the emission value from untreated cells is set as 100% viability and the emission rates of treated cells are set in relation to the values of untreated cells. Viabilities are expressed as % values. The Graphpad Prism program is used for the calculation of EC50 values out of the obtained dose-response curves. Viability is compared of proliferating cells grown in the absence of the inducer Ponasterone A, versus viability of cells arrested by the expression of ectopic p27Kip1 induced by Ponasterone A.

The test system is the same in data set [2].
Experimental: as §1, §2

Counter-ions that a name gives are not always drawn.

With `CN(C)CCCN(C)C(=O)N1N=C2c3cc(F)ccc3OC[C@@H]2[C@@H]1c1cccc(O)c1` (racemic) (as salt: salt) [Example 6, (3RS,3aRS)-8-Fluoro-3-(3-hydroxy-phenyl)-3a,4-dihydro-3H-chromeno[4,3-c]pyrazole-2-carboxylic acid (3-dimethylamino-propyl)-methyl-amide], the melting point (in general, the temperature of the solid-liquid transition) was 145 °C.

In turn, `CN(C)CCN(C)C(=O)N1N=C2c3cc(F)ccc3OC[C@@H]2[C@@H]1c1ccccc1` (racemic) (as salt: salt) [Example 19, (3RS,3aRS)-8-Fluoro-3-phenyl-3a,4-dihydro-3H-chromeno[4,3-c]pyrazole-2-carboxylic acid (2-dimethylamino-ethyl)-methyl-amide] gave a melting point of 248 to 250 °C. Consider `CN(C)C(=O)N1N=C2c3cc(F)ccc3OC[C@@H]2[C@@H]1c1ccccc1` (racemic) [Example 7, (3RS,3aRS)-8-Fluoro-3-phenyl-3a,4-dihydro-3H-chromeno[4,3-c]pyrazole-2-carboxylic acid dimethylamide], for which the melting point came out at 117 °C. The EC50 in data set [1] was 100 to 1000 nM.

Compound `CC(C)N(C)C(=O)N1N=C2c3cc(F)ccc3OC[C@@H]2[C@@H]1c1ccccc1` (racemic) [Example 13, (3RS,3aRS)-8-Fluoro-3-phenyl-3a,4-dihydro-3H-chromeno[4,3-c]pyrazole-2-carboxylic acid isopropyl-methyl-amide] displayed a melting point of 102 to 105 °C. In turn, `CCN(C)C(=O)N1N=C2c3cc(F)ccc3OC[C@@H]2[C@@H]1c1ccccc1` (racemic) [Example 14, (3RS,3aRS)-8-Fluoro-3-phenyl-3a,4-dihydro-3H-chromeno[4,3-c]pyrazole-2-carboxylic acid ethyl-methyl-amide] yielded a melting point of 133 to 137 °C. Moreover, the EC50 in data set [1] was 100 to 1000 nM. The matching figures for `CN(C(=O)N1N=C2c3cc(F)ccc3OC[C@@H]2[C@@H]1c1ccccc1)C1CCNCC1` (racemic) [Example 16, (3RS,3aRS)-8-Fluoro-3-phenyl-3a,4-dihydro-3H-chromeno[4,3-c]pyrazole-2-carboxylic acid methyl-piperidin-4-yl-amide]: 196 °C and no more than 100 nM. In turn, `O=C(N(C1CCNCC1)C1CC1)N1N=C2c3cc(F)ccc3OC[C@@H]2[C@@H]1c1ccccc1` (racemic) [Example 17, (3RS,3aRS)-8-Fluoro-3-phenyl-3a,4-dihydro-3H-chromeno[4,3-c]pyrazole-2-carboxylic acid cyclopropyl-piperidin-4-yl-amide] yielded a melting point of 142 °C. Further, in data set [1], the EC50 is 100 to 1000 nM. For `CN(CCN)C(=O)N1N=C2c3cc(F)ccc3OC[C@@H]2[C@@H]1c1ccccc1` (stereo in doubt) [Example 18, (3RS,3aRS)-8-Fluoro-3-phenyl-3a,4-dihydro-3H-chromeno[4,3-c]pyrazole-2-carboxylic acid (2-amino-ethyl)-methyl-amide], in that order: 113.2 °C and no more than 100 nM.

Regarding “(3RS,3aRS)-8-Fluoro-3-phenyl-3a,4-dihydro-3H-chromeno[4,3-c]pyrazole-2-carboxylic acid ((R)-1-isopropyl-piperidin-3-ylmethyl)-methyl-amide and (3RS,3aRS)-8-Fluoro-3-phenyl-3a,4-dihydro-3H-chromeno[4,3-c]pyrazole-2-carboxylic acid ((S)-1-isopropyl-piperidin-3-ylmethyl)-methyl-amide [Example 26]”, the “−log EC50 [mol/l] RKO p27 uninduced (proliferating), anti-proliferative/cytotoxic activity” value in data set [2] is on record as “(proliferating) ≧7.0 mol/l”.

“(3RS,3aRS)-8-Fluoro-3-phenyl-3a,4-dihydro-3H-chromeno[4,3-c]pyrazole-2-carboxylic acid methyl-((R)-1-methyl-piperidin-3-ylmethyl)-amide and (3RS,3aRS)-8-Fluoro-3-phenyl-3a,4-dihydro-3H-chromeno[4,3-c]pyrazole-2-carboxylic acid methyl-((S)-1-methyl-piperidin-3-ylmethyl)-amide [Example 24]”: the “−log EC50 [mol/l] RKO p27 uninduced (proliferating), anti-proliferative/cytotoxic activity” value in data set [2] is given as “(proliferating) ≧7.0 mol/l”.

(Values after US20100104659A1, “BENZOPYRANOPYRAZOLES” (priority 2006, published 2010).)
